Experimental data taken from US20180193409A1, “PEPTIDYL TPOR ANTAGONISTS AND USES THEREOF” (POLYMERS CRC LIMITED, priority 2015, published 2018).
Bridge positions count the residues as written; N and C are the ends. Peptide text beside a SMILES is read from it. I, II: the chains in the order shown.

Legend:
[1] = biological target: T1, receptor for human TPO (c-Mpl) (Homo sapiens, UniProt P40238); assay: Agonist assay: proliferation of FD-Mpl cells in the absence of rhTPO (ATP-luminescence); format: cell-based; settings: no rhTPO
T1 construct: expressed in transfected cells; host or cells: FD-Mpl (murine, derived from FDCP-1)
T1 sequence (P40238 26-635): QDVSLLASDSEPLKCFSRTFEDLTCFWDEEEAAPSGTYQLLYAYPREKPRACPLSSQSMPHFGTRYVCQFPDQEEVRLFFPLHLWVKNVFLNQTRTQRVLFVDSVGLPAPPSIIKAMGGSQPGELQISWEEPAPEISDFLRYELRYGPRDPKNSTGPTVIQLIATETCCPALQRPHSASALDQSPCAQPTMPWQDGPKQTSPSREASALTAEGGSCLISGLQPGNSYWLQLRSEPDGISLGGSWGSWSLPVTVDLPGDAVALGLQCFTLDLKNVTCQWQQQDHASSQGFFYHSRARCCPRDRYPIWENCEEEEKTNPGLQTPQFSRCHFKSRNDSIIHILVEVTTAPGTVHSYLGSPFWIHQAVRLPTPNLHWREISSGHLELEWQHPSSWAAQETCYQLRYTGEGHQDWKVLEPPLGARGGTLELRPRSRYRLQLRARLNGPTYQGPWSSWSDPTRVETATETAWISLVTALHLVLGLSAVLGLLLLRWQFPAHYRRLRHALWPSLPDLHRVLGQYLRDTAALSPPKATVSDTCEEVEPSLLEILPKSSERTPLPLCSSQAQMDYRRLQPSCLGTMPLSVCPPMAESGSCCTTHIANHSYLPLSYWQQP
Procedure: Bioactivity testing was carried out as follows. All compounds were tested on a murine TPO-dependent cell line FD-Mpl. FD-Mpl cells are derived from the haemopoietic growth factor dependent cell line FDCP-1 and express the receptor for human TPO (c-Mpl)—(as per Winkler, D., Riches, A., Condie, G., Tarasova, A., Andrade, J., White, J., Cablewski, T., Werkmeister, J., Haylock, D. and Meagher, L., ACS Chemical Biology 2010, DOI: 10.1021/cb100100u). These cells are typically cultured in media supplemented with 10% foetal bovine serum and the cytokines interleukin-3, GM-CSF or TPO (as per Naparstek, E., Pierce, J., Metcalf, D., Shadduck, R., Ihle, J., Leder, A., Sakakeeny, M. A., Wagner, K., Falco, J., Fitzgerald, T. J. and Greenberger, J. S., Blood 1986, 67, 1395-1403). In the absence of either of these factors, FDCP-1 cells rapidly undergo apoptosis (usually within 24 hours). FD-Mpl cells were maintained in DMEM medium with 10% foetal calf serum (FCS) and supplemented with 30 ng/mL of recombinant human TPO (rhTPO, Apollo Cytokine Research). For the antagonist assay, FD-Mpl cells were harvested by centrifugation and the resulting cell pellet was thoroughly washed, twice, with 10 mL PBS to remove residual cytokine. The cells were then resuspended in 5 mL of cell culture medium without rhTPO and incubated at 37° C. for 1 h (or 2 h in the case of the agonist assay; Note: short term withdrawal of rhTPO enhances up-regulation of the TPO receptor, c-Mpl). FD-Mpl cells were counted and resuspended in a mix of cell culture medium with added peptide of interest and incubated at 4° C. for 2 h (for the agonist assay this brief incubation at 4° C. for 2 h was omitted). Following this incubation, cells were supplemented with low doses of TPO (either 6 or 10 ng/mL of rhTPO) and plated at 5000 cells/well/100 μL medium in a 96-well tissue culture plate. […]
(§1) Cells were then incubated at 37° C. for 24 hours (or 48 hours in the case of the agonist assay) and cell proliferation was assessed as follows. Cells were plated in quadruplicate onto white luminescence detection plates and cell proliferation and viability were assessed by an ATP-luminescence detection assay (CellTiter Glo Luminescent Cell Viability Assay Kit, Promega). Cells were also plated in triplicate and cell morphology was assessed using phase contrast microscopy.
For the antagonist assay, the cell numbers determined via the luminescence assay were normalised by the cell numbers obtained for FD-Mpl cells cultured in either 6 or 10 ng/mL of rhTPO without added peptide and plotted as a function of the peptide concentration (see FIGS. 1a and b). […] For the agonist assay used with the LCP-PD peptide, the cell numbers were normalised by the cell numbers obtained with media supplemented with 30 ng/mL rhTPO and expressed as a percentage. […]

[2] = biological target: T1, receptor for human TPO (c-Mpl); assay: Antagonist assay: proliferation of FD-Mpl cells in media supplemented with rhTPO (ATP-luminescence); format: cell-based; settings: murine FD-Mpl cells, 6 or 10 ng/mL rhTPO (LCP also 30 ng/mL), 24 hours; read-out: concentration at which the decrease in normalised cell proliferation occurred (estimated EC50, antagonist assay)
Procedure: Bioactivity testing was carried out as follows. All compounds were tested on a murine TPO-dependent cell line FD-Mpl. FD-Mpl cells are derived from the haemopoietic growth factor dependent cell line FDCP-1 and express the receptor for human TPO (c-Mpl)—(as per Winkler, D., Riches, A., Condie, G., Tarasova, A., Andrade, J., White, J., Cablewski, T., Werkmeister, J., Haylock, D. and Meagher, L., ACS Chemical Biology 2010, DOI: 10.1021/cb100100u). […] FD-Mpl cells were counted and resuspended in a mix of cell culture medium with added peptide of interest and incubated at 4° C. for 2 h (for the agonist assay this brief incubation at 4° C. for 2 h was omitted). […]
as §1, with “microscopy. […]” for “microscopy.”

agonist activity at the c-Mpl receptor (in words) ([1]; FD-Mpl cells)	EC50 [2] [µM]	efficacy with respect to cell proliferation (agonist assay) ([1]; FD-Mpl cells, normalised by cell numbers with 30 ng/mL rhTPO) [%]	EC50 ([1]; murine FD-Mpl cells, 48 hours, read-out: concentration at which increased cell proliferation was observed (agonist assay)) [µM]	SMILES
potent agonist				CC[C@H](C)[C@@H]1NC(=O)[C@H](C)NC(=O)[C@@H](NC(=O)[C@H](C)NC(C)=O)CSSC[C@H](NC(=O)[C@H](C)NC(C)=O)C(=O)N[C@@H](C)C(=O)N[C@@H]([C@@H](C)CC)C(=O)N[C@@H](CCC(=O)O)C(=O)NCC(=O)N2CCC[C@H]2C(=O)N[C@@H]([C@@H](C)O)C(=O)N[C@@H](CC(C)C)C(=O)N[C@@H](CCCNC(=N)N)C(=O)N[C@@H](CCC(N)=O)C(=O)N[C@@H](Cc2c[nH]c3ccccc23)C(=O)N[C@@H](CC(C)C)C(=O)N[C@@H](C)C(=O)N[C@@H](C)C(=O)N[C@@H](CCCNC(=N)N)C(=O)N[C@@H](C)C(=O)N[C@@H](C)C(=O)N[C@H](C(=O)N[C@@H](C)C(=O)O)CSSC[C@@H](C(=O)N[C@@H](C)C(=O)O)NC(=O)[C@H](C)NC(=O)[C@H](C)NC(=O)[C@H](CCCNC(=N)N)NC(=O)[C@H](C)NC(=O)[C@H](C)NC(=O)[C@H](CC(C)C)NC(=O)[C@H](Cc2c[nH]c3ccccc23)NC(=O)[C@H](CCC(N)=O)NC(=O)[C@H](CCCNC(=N)N)NC(=O)[C@H](CC(C)C)NC(=O)[C@H]([C@@H](C)O)NC(=O)[C@@H]2CCCN2C(=O)CNC(=O)[C@H](CCC(=O)O)NC1=O [LCP-PD] (I: Ac-ACAIEGPTLRQWLAARAACA-OH / II: Ac-ACAIEGPTLRQWLAARAACA-OH; disulfide I:2-II:2, I:19-II:19; C-terminus assumed)
	~3	40	~0.06	CC[C@H](C)[C@@H]1NC(=O)[C@H](C)NC(=O)[C@@H](NC(=O)[C@H](C)NC(C)=O)CSSC[C@@H](C(=O)N[C@@H](C)C(=O)O)NC(=O)[C@H](C)NC(=O)[C@H](C)NC(=O)[C@H](CCCNC(=N)N)NC(=O)[C@H](C)NC(=O)[C@H](C)NC(=O)[C@H](CC(C)C)NC(=O)[C@H](Cc2c[nH]c3ccccc23)NC(=O)[C@H](CCC(N)=O)NC(=O)[C@H](CCCNC(=N)N)NC(=O)[C@H](CC(C)C)NC(=O)[C@H]([C@@H](C)O)NC(=O)[C@@H]2CCCN2C(=O)CNC(=O)[C@H](CCC(=O)O)NC1=O [LCP] (Ac-ACAIEGPTLRQWLAARAACA-OH; disulfide 2-19; C-terminus assumed)
	20 to 30			CC(=O)N[C@@H](C)C(=O)N[C@H]1CSSC[C@@H](C(=O)N[C@@H](C)C(=O)O)NC(=O)[C@H](C)NC(=O)[C@H](C)NC(=O)[C@H](C)NC(=O)[C@H](CC(C)C)NC(=O)[C@H](Cc2c[nH]c3ccccc23)NC(=O)[C@H](CCC(N)=O)NC(=O)[C@H](CCCNC(=N)N)NC(=O)[C@H](CC(C)C)NC(=O)[C@H](C)NC(=O)[C@H](C)NC(=O)[C@H](C)NC1=O [Example 2, AcACAAALRQWLAAACA] (Ac-ACAAALRQWLAAACA-OH; disulfide 2-14)
reasonably potent agonist				CC(=O)N[C@@H](C)C(=O)N[C@H]1CSSC[C@H](NC(=O)[C@H](C)NC(C)=O)C(=O)N[C@@H](C)C(=O)N[C@@H](C)C(=O)N[C@@H](C)C(=O)N[C@@H](CC(C)C)C(=O)N[C@@H](CCCNC(=N)N)C(=O)N[C@@H](CCC(N)=O)C(=O)N[C@@H](Cc2c[nH]c3ccccc23)C(=O)N[C@@H](CC(C)C)C(=O)N[C@@H](C)C(=O)N[C@@H](C)C(=O)N[C@@H](C)C(=O)N[C@H](C(=O)N[C@@H](C)C(=O)O)CSSC[C@@H](C(=O)N[C@@H](C)C(=O)O)NC(=O)[C@H](C)NC(=O)[C@H](C)NC(=O)[C@H](C)NC(=O)[C@H](CC(C)C)NC(=O)[C@H](Cc2c[nH]c3ccccc23)NC(=O)[C@H](CCC(N)=O)NC(=O)[C@H](CCCNC(=N)N)NC(=O)[C@H](CC(C)C)NC(=O)[C@H](C)NC(=O)[C@H](C)NC(=O)[C@H](C)NC1=O [MCP-PD] (I: Ac-ACAAALRQWLAAACA-OH / II: Ac-ACAAALRQWLAAACA-OH; disulfide I:2-II:2, I:14-II:14; C-terminus assumed)
